Source: US7897637B2, “Methods of using flavonoids to enhance memory” (The Salk Institute for Biological Studies, priority 2006, dated 2011)

Key:
[1] = Trolox Equivalent Activity Concentration (ABTS decolorization assay); conditions: Trolox as reference
Protocol: To determine if the protection seen with the different fisetin derivatives correlated with their antioxidant properties, their Trolox Equivalent Activity Concentration (TEAC) values were determined. In this procedure, a compound is compared to Trolox, a water-soluble vitamin E analog, for its ability to reduce the radical cation of ABTS in aqueous solution. As reported previously, fisetin has a TEAC value of ˜3 (Table II). None of the derivatives had TEAC values in this range despite, in some cases, showing better protection against oxidative stress-induced death. Thus, there was no correlation with antioxidant activity as defined by TEAC value and protection in this system.
TEAC values for the flavonoids were determined according to (Re et al. Free Rad. Biol. Med., 26:1231-7, 1999) but modified for a plate reader. Briefly, 250 μl of 2,2′-azinobis(3-ethylbenzothiazoline 6-sulfonate)(ABTS) treated overnight with potassium persulfate and diluted to an OD of ˜0.7 at 734 nm was added to 2.5 μl of a flavonoid solution in ethanol. The change in absorbance due to the reduction of the ABTS radical cation was measured at 734 nm for 4 minutes. To calculate the TEAC, the gradient of the plot of the percentage inhibition of absorbance vs. concentration for the flavonoid in question is divided by the gradient of the plot for Trolox.

[2] = system: Nrf2 and HO-1; assay: Nrf2 and HO-1 induction in HT22 cells (immunoblotting); type: cell-based, mouse; conditions: for increasing the levels of Nrf2 and inducing HO-1 synthesis: HT22 cells, 10-25 μM, 4 hours (Nrf2), 24 hours (HO-1)
Protocol: Since the ability to activate the ARE could be important for some of the beneficial effects of flavonoids such as fisetin, it was determined which, if any, of the fisetin derivatives could activate the ARE and induce the synthesis of downstream proteins such as HO-1. HT22 cells were untreated (control) or treated with 10 μM fisetin, 25 μM 3,3′DHF, 25 μM 3,4′-DHF, 10 μM 3′,4′-DHF, 10 μM 3,3′,4′-THF, 25 μM 3,7,3′-THF, 25 μM 3,7,4′-THF or 10 μM 7,3′,4′-THF for 4 hours. Nuclei were prepared and equal amounts of protein were analyzed by SDS-PAGE and immunoblotting with anti-Nrf-2 antibodies.
ERK activation is implicated in the induction of Nrf2 by certain stimuli in some cell types. To determine if ERK activation plays a role in the induction of Nrf2 and HO-1 by fisetin and its derivatives, cells were pretreated with PD98059 prior to the addition of the flavonoids to the cells. HT22 cells then were untreated (control) or treated for 24 hours with 10 μM fisetin, 25 μM 3,3′-DHF, 25 μM 3,4′-DHF, 10 μM 3′,4′-DHF, 10 μM 3,3′,4′-THF, 25 μM 3,7,3′-THF, 25 μM 3,7,4′-THF or 10 μM 7,3′,4′-THF. Cell lysates were prepared and equal amounts of cellular protein were analyzed by SDS-PAGE and immunoblotting with anti-HO-1 antibodies. Immunoblotting with anti-actin was used as a loading control.
For immunoblotting of HO-1, untreated and flavonoid-treated HT22 cells from the same density cultures as used for the cell death assays were washed twice in cold phosphate-buffered saline (PBS) then scraped into lysis buffer containing 50 mM HEPES, pH 7.4, 150 mM NaCl, 50 mM NaF, 1.5 mM MgC2, 1 mM EGTA, 10% glycerol, 1% Triton X-100, 10 mM sodium pyrophosphate, 1 mM Na3VO4, 1 mM phenylmethylsulfonyl fluoride (PMSF), 15 μg/ml aprotinin, 1 μg/ml pepstatin, and 5 μg/ml leupeptin. Lysates were incubated at 4° C. for 30 minutes, and then cleared by centrifugation at 14,000 rpm for 10 minutes. For immunoblotting of Nr12, nuclear extracts were prepared as described (Schreiber et al., Nuc. Acids Res., 17:6419, 1989) from untreated and flavonoid-treated cells. […] Protein concentrations were determined using the BCA protein assay (Pierce). Equal amounts of protein were solubilized in 2.5×SDS sample buffer, separated on 10% SDS polyacrylamide gels and transferred to nitrocellulose. The primary antibodies used were: anti-Nrf2 (#SC13032; 1/1000) from Santa Cruz Biotechnology (Santa Cruz, Calif.) and anti-HO-1 (#SPA-896; 1/5000) from Stressgen (Victoria, BC Canada).

[3] = system: PC12 cells; assay: PC12 cell differentiation assay (neurite outgrowth); type: cell-based; conditions: for EC50 / Emax: Rattus norvegicus, PC-12, PC12 cells in N2 medium, 24 hours, neurites scored; for EC50: read-out: EC50 (μM), induction of PC12 cell differentiation; for Emax: read-out: Maximal Efficacy, induction of PC12 cell differentiation
Protocol: Four trihydroxyflavones (THF) and three dihydroxyflavones (DHF) which lack one or two, respectively, of the hydroxyl groups found in fisetin were tested for their ability to induce the differentiation of PC12 cells. Differentiation was assessed by scoring neurite outgrowth (Sagara et al., J. Neurochem., 90:1144-1155, 2004). […]
PC12 cells in N2 medium were treated with flavonoids for 24 hours at which time the cells were scored for the presence of neurites. PC12 cells produce neurites much more rapidly when treated in N2 medium than when treated in regular growth medium (Kimura et al., J. Cell Biol., 116:777-83, 1992). For each treatment, 100 cells in each of three separate fields were counted. Cells were scored positive if one or more neurites>1 cell body diameter in length were observed.

| SMILES | TEAC [1] | TEAC ([1]; listed as 3,7,3,′4′-THF (fisetin)) | increasing the levels of Nrf2 and inducing HO-1 synthesis [2] | effect of inhibition of ERK activation (PD98059) on Nrf2 and HO-1 induction ([2]; PD98059 pretreatment) | EC50 [3] [µM] | Emax [3] [%] | ability to induce differentiation ([3]; PC12 cells) | differentiation of the PC12 cells ([3]; concentration of 5 μM) [%] |
| --- | --- | --- | --- | --- | --- | --- | --- | --- |
| O=c1c(O)c(-c2ccc(O)c(O)c2)oc2cc(O)ccc12 [fisetin, 3,3′,4′,7-tetrahydroxyflavone] | ~3 | 3.11 ± 0.20 | best of the group | no effect | 5 | 70 to 80 | – | – |
| O=c1cc(-c2ccc(O)c(O)c2)oc2ccccc12 [3′,4′-DHF, 3′,4′-dihydroxyflavone] | 1.24 ± 0.08 | – | weakly active | – | 10 | 40 to 50 | – | – |
| O=c1c(O)c(-c2ccc(O)c(O)c2)oc2ccccc12 [3,3′,4′-THF, 3,3′,4′-trihydroxyflavone] | 2.07 ± 0.06 | – | fairly effective | – | 2.5 | 80 to 90 | most effective of those tested | > 80 |
